Measured values taken from patent publication US6589984B1, “Benzofurylpyrone derivatives” (Teijin Limited, priority 1998, dated 2003).

How the values were obtained:
[1] = test system: Human hepatic cancer cells HepG2; test: TG production inhibiting activity (14C-acetic acid incorporation into TG) in HepG2 cells; assay type: cell-based
Summary of the method: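 HepG2 cells cultured 6 days in eRDF with 10% bovine serum, then in serum-free eRDF given compound (diluted from 20 mM DMSO stock) plus 14C-acetic acid for one day at 37 °C, 5% CO2. Lipids extracted with hexane/isopropanol 2:1 and separated by TLC; the TG spot was cut out and counted by liquid scintillation.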

[2] = Drug effect evaluation test: serum TG, total cholesterol and HDL in rats after 7 days of oral dosing; assay type: in vivo; conditions: SD male rats, 4 hours after final administration
Description: 6-(benzofuran-2-yl)-3,5-dimethyl-4-hydroxy-2H-pyran-2-one (Example 2) was suspended in a 0.5% carboxymethyl cellulose Na aqueous solution (vehicle) to prepare 20 mg/ml and 60 mg/ml administration solutions, and these were orally administered to 6-week-old SD male rats at a dose of 5 ml/kg once a day, for 7 consecutive days. CE-2 by Nihon Crea Co. was used for the rat feed, and the rats were allowed free access to food and water. The rats were separated into a vehicle-administered group of 6 rats and a drug-administered group of 6 rats for a test. At 4 hours after the final drug administration, the rats were killed under ether anesthesia, blood was drawn from the abdominal aorta, and the serum levels of TG, total cholesterol (TC) and HDL-were measured.
Triglyceride EII-HA Test Wako (product of Wako Junyaku Kogyo) was used for the TG measurement, HA Test Wako/Cholesterol E-HA Test Wako (product of Wako Junyaku Kogyo) was used for the total cholesterol (TC) measurement, and HDL-cholesterol Test Wako (product of Wako Junyaku Kogyo) was used for the HDL measurement.

[3] = 100 mg/kg orally once a day for 7 days
[4] = 300 mg/kg orally once a day for 7 days

IC50 ([1]; Homo sapiens, HepG2, group criterion, alternatives: IC50 less than 10 μM, or at least 30% inhibition at 1 μM, or at least 50% inhibition at 10 μM): < 10 µM
Compound: Cc1c(-c2cc3ccccc3o2)oc(=O)c(C)c1O [Example 2, 6-(benzofuran-2-yl)-3,5-dimethyl-4-hydroxy-2H-pyran-2-one]
triglyceride biosynthesis inhibiting activity ([1]; HepG2, conclusion in words from Table 1): exhibits triglyceride biosynthesis inhibiting activity
inhibition at 1 µM ([1]; Homo sapiens, 24 h, sample concentration 1 μM, HepG2, one day culture with 14C-acetic acid): 22%
inhibition at 10 µM ([1]; Homo sapiens, 24 h, sample concentration 10 μM, HepG2, one day culture with 14C-acetic acid): 70%
inhibition at 100 µM ([1]; Homo sapiens, 24 h, sample concentration 100 μM, HepG2, one day culture with 14C-acetic acid): 98%
Serum HDL-C (mg/dl) (mean ± SE) [2, 3]: 35.0 ± 3.1 mg/dL
Serum TG (mg/dl) (mean ± SE) [2, 3]: 94.8 ± 6.5 mg/dL
Serum HDL-C (mg/dl) (mean ± SE) [2, 4]: 42.2 ± 3.8 mg/dL
Serum TG (mg/dl) (mean ± SE) [2, 4]: 74.8 ± 10.7 mg/dL
